Experimental data as given in ChEMBL document CHEMBL1909046, “DrugMatrix in vitro pharmacology data”.

What was measured:
Adenosine receptor A2a = Adenosine receptor A2a (Homo sapiens, UniProt P29274); test: DRUGMATRIX: Adenosine A2A radioligand binding (ligand: […]); assay type: cell membranes, HEK293, Membrane; settings: Not Active = under 50% inhibition at 10 µM; for Ki: read-out: Ki
[1] = molecular target: T1, Polyunsaturated fatty acid lipoxygenase ALOX15 (Oryctolagus cuniculus, UniProt P12530); test: biochemical; assay type: tissue-based, Reticulocytes;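 further: inhibition of 15-lipoxygenase enzyme activity measured with linoleic acid as the substrate; in other assays of this panel Not Active means under 50% inhibition at 10 µM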
T1 sequence (P12530 whole entry): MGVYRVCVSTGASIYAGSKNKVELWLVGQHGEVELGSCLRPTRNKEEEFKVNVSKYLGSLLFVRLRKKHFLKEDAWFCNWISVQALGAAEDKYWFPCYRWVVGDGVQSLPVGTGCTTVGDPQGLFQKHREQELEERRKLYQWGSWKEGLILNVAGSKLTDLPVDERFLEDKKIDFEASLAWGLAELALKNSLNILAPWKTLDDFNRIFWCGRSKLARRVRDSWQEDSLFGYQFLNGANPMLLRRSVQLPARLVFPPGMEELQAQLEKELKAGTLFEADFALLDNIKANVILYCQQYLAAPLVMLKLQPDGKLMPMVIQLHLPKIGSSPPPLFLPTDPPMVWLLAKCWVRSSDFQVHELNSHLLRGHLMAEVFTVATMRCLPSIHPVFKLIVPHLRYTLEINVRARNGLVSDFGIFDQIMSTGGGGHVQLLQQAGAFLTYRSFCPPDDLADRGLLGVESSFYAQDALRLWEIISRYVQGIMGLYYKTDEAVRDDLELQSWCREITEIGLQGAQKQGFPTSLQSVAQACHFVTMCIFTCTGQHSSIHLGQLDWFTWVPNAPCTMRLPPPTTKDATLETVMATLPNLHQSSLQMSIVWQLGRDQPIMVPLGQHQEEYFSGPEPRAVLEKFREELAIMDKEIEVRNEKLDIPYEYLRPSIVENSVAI

[2] = DRUGMATRIX: Phosphodiesterase PDE4 enzyme inhibition (substrate: [3H]cAMP + cAMP); settings: u-937, Not Active = under 50% inhibition at 10 µM
[3] = molecular target: Protein kinase C alpha type (Homo sapiens, UniProt P17252); assay type: cell-based; settings: sf9;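 further: inhibition of PKCalpha kinase activity measured in an enzyme assay with histone as the phosphorylation substrate; in other assays of this panel Not Active means under 50% inhibition at 10 µM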
[4] = molecular target: T2, Neuropeptide Y receptor type 1 (Homo sapiens, UniProt P25929); assay type: cell membranes, Membrane; settings: sk-n-mc; further: in other assays of this panel Not Active means under 50% inhibition at 10 µM
T2 sequence (P25929 whole entry): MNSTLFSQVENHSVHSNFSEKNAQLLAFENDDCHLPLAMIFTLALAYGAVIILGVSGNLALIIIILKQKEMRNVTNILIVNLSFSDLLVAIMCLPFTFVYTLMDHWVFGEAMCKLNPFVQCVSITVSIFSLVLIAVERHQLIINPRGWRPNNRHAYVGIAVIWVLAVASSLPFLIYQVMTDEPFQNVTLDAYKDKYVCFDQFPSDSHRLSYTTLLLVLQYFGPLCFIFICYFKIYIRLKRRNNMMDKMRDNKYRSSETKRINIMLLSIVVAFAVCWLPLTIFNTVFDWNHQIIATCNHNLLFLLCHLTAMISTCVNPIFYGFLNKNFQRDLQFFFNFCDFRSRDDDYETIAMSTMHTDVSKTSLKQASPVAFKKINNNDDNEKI

Caspase-1 = molecular target: T3, Caspase-1 (Homo sapiens, UniProt P29466); parameters: species or system Escherichia coli;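 further: Caspase-1 enzyme inhibition assay with a peptide substrate; in other assays of this panel Not Active means under 50% inhibition at 10 µM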
T3 sequence (P29466 whole entry): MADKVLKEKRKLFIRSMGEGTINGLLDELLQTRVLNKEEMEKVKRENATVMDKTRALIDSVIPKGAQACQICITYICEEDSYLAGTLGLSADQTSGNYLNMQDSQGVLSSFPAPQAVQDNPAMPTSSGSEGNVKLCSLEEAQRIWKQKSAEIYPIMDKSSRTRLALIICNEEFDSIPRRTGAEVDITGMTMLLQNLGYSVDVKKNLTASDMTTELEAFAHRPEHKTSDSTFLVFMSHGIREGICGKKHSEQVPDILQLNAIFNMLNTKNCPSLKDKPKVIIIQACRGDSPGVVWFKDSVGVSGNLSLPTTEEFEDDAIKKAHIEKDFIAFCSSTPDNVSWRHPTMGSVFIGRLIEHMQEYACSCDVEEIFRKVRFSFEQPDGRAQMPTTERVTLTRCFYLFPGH

[5] = molecular target: T4, Alpha-1B adrenergic receptor (Rattus norvegicus, UniProt P15823); test: DRUGMATRIX: Alpha-1B adrenergic receptor radioligand binding (ligand: prazosin); assay type: cell membranes, Wistar, Liver, Membrane; settings: Not Active = under 50% inhibition at 10 µM
T4 sequence (P15823 whole entry): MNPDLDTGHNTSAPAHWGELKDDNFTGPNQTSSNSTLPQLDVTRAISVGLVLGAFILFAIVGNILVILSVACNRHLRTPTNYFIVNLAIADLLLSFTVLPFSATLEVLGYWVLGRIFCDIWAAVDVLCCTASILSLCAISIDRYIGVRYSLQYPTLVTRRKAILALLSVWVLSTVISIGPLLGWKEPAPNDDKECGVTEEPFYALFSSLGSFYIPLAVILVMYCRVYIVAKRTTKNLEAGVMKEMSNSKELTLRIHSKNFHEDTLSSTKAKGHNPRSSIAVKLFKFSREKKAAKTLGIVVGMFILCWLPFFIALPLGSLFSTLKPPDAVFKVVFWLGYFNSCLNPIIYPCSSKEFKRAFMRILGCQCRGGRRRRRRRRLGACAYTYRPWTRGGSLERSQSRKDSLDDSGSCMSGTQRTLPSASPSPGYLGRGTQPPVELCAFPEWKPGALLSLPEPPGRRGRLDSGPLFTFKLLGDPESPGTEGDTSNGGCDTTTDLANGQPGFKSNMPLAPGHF

Sequence of Adenosine receptor A2a (P29274 whole entry): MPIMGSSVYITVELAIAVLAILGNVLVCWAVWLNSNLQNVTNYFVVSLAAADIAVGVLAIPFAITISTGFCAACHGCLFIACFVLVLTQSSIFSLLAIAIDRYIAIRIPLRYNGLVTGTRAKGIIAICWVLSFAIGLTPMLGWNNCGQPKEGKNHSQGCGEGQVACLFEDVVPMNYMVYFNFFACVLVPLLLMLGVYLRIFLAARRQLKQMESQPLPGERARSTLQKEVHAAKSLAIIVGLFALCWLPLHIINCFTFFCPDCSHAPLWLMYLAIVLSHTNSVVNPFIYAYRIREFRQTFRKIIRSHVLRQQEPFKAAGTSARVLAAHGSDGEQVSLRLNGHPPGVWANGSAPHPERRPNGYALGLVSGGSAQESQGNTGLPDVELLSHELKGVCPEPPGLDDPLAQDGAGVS

Structure (SMILES) | IC50 (Adenosine receptor A2a; hek293) | IC50 ([1]; reticulocytes) | IC50 [2] | Ki [2] | IC50 [3] | IC50 [4] | IC50 (Caspase-1) | IC50 [5] | IC50 (Adenosine receptor A2a; read-out: IC50) [nM] | Ki (Adenosine receptor A2a) [nM] | IC50 ([1]; read-out: IC50) [nM] | IC50 ([2]; read-out: IC50) [nM]
C=CCc1ccc(O)c(OC)c1 [EUGENOL] | Not Active | Not Active | Not Active | Not Active | Not Active | Not Active | Not Active | Not Active | – | – | – | –
CC(C(=O)O)c1cccc(Oc2ccccc2)c1 (stereo not drawn) [FENOPROFEN] | Not Active | Not Active | Not Active | Not Active | Not Active | Not Active | Not Active | Not Active | – | – | – | –
CC(C)(C)NC(=O)[C@H]1CC[C@H]2[C@@H]3CC[C@H]4NC(=O)C=C[C@]4(C)[C@H]3CC[C@]12C [FINASTERIDE] | Not Active | Not Active | Not Active | Not Active | Not Active | Not Active | Not Active | Not Active | – | – | – | –
COc1ccc2c3c1O[C@H]1C[C@@H](O)C=C[C@@]31CCN(C)C2 [GALANTAMINE] | Not Active | Not Active | Not Active | Not Active | Not Active | Not Active | Not Active | Not Active | – | – | – | –
Nc1ccn([C@@H]2O[C@H](CO)[C@@H](O)C2(F)F)c(=O)n1 [GEMCITABINE] | Not Active | Not Active | Not Active | Not Active | Not Active | Not Active | Not Active | Not Active | – | – | – | –
CC(C)=CCC/C(C)=C/CO [GERANIOL] | Not Active | Not Active | Not Active | Not Active | Not Active | Not Active | Not Active | Not Active | – | – | – | –
N=C(N)NC(=O)Cc1c(Cl)cccc1Cl [GUANFACINE] | Not Active | Not Active | Not Active | Not Active | Not Active | Not Active | Not Active | Not Active | – | – | – | –
Oc1c(Cl)cc(Cl)c(Cl)c1Cc1c(O)c(Cl)cc(Cl)c1Cl [HEXACHLOROPHENE] | – | Not Active | Not Active | Not Active | Not Active | Not Active | Not Active | Not Active | 1610 | 906 | – | –
NNc1nncc2ccccc12 [HYDRALAZINE] | Not Active | – | Not Active | Not Active | Not Active | Not Active | Not Active | Not Active | – | – | 3650 | –
CC(=O)[C@@]1(O)CC[C@H]2[C@@H]3CCC4=CC(=O)CC[C@]4(C)[C@H]3CC[C@@]21C [HYDROXYPROGESTERONE] | Not Active | Not Active | Not Active | Not Active | Not Active | Not Active | Not Active | Not Active | – | – | – | –
COC1=C(OC)C(=O)C(CCCCCCCCCCO)=C(C)C1=O [IDEBENONE] | Not Active | Not Active | Not Active | Not Active | Not Active | Not Active | Not Active | Not Active | – | – | – | –
CC(C)NNC(=O)c1ccncc1 [IPRONIAZID] | Not Active | Not Active | Not Active | Not Active | Not Active | Not Active | Not Active | Not Active | – | – | – | –
Cc1c(OCC(F)(F)F)ccnc1C[S+]([O-])c1nc2ccccc2[nH]1 (stereo not drawn) [LANSOPRAZOLE] | Not Active | Not Active | Not Active | Not Active | Not Active | Not Active | Not Active | Not Active | – | – | – | –
O=c1cc(N2CCOCC2)oc2c(-c3ccccc3)cccc12 [LY-294002] | Not Active | Not Active | – | – | Not Active | Not Active | Not Active | Not Active | – | – | – | 10400
COc1ccc2[nH]cc(CCNC(C)=O)c2c1 [MELATONIN] | Not Active | Not Active | Not Active | Not Active | Not Active | Not Active | Not Active | Not Active | – | – | – | –
NC(=O)C[S+]([O-])C(c1ccccc1)c1ccccc1 (stereo not drawn) [MODAFINIL] | Not Active | Not Active | Not Active | Not Active | Not Active | Not Active | Not Active | Not Active | – | – | – | –
CCN(CC)CCOCCC1=CCC2CC1C2(C)C (stereo not drawn) [MYRTECAINE] | Not Active | Not Active | Not Active | Not Active | Not Active | Not Active | Not Active | Not Active | – | – | – | –
O=C(O)c1cccnc1Nc1cccc(C(F)(F)F)c1 [NIFLUMIC ACID] | Not Active | Not Active | Not Active | Not Active | Not Active | Not Active | Not Active | Not Active | – | – | – | –
O=C(N/N=C/c1ccc([N+](=O)[O-])o1)c1cc([N+](=O)[O-])cc([N+](=O)[O-])c1O [NIFURSOL] | Not Active | Not Active | Not Active | Not Active | Not Active | Not Active | Not Active | Not Active | – | – | – | –
COC(=O)Nc1nc2ccc(C(=O)c3cccs3)cc2[nH]1 [NOCODAZOLE] | – | Not Active | Not Active | Not Active | Not Active | Not Active | Not Active | Not Active | 7510 | 4220 | – | –
C#CC1(O)CC[C@H]2[C@@H]3CCC4=CC(=O)CC[C@@H]4[C@H]3CC[C@@]21CC (stereo partly drawn) [NORGESTREL] | Not Active | Not Active | Not Active | Not Active | Not Active | Not Active | Not Active | Not Active | – | – | – | –
COC(=O)Nc1nc2ccc([S+]([O-])c3ccccc3)cc2[nH]1 (stereo not drawn) [OXFENDAZOLE] | – | Not Active | Not Active | Not Active | Not Active | Not Active | Not Active | Not Active | 1500 | 844 | – | –
